# According to patent publication US10172910B2, “Method of preventing or reducing the incidence of acute urinary retention” (Nymox Corporation, priority 2016, dated 2019):
# Marks after values point to notes of the source that are not given here. No end group written: not given here.
# Key:
# Type in all cases: in vivo, human
# Patients with BPH [1] = assay: Example 4: acute urinary retention within 24 months, SEQ ID NO. 66 followed by oral medications or second injection vs vehicle
# Description: Patients with BPH were given an intraprostatic injection under double-blind conditions by a urologist in an office setting under ultrasound guidance of either a) SEQ ID NO. 66 (Ile-Asp-Gln-Gln-Val-Leu-Ser-Arg-Ile-Lys-Leu-Glu-Ile-Lys-Arg-Cys-Leu), in phosphate buffered saline pH 7.2 (“PBS”); or b) SEQ ID NO. 66 in phosphate buffered saline pH 7.2 followed by a second injection of SEQ ID NO. 66 2.5 mg one month to 2 years later; or c) PBS vehicle alone followed by conventional oral BPH medications used to treat BPH including alpha blockers such as tamsulosin, terazosin, doxazosin, or 5-alpha reductase inhibitors such as finasteride, dutasteride, or phosphodiesterase type 5 inhibitors (PDE5 inhibitors) such as tadalafil. Patients were followed for 2 years with regular physical examinations, laboratory tests, and evaluations of symptoms. […] 66 followed by conventional medication or by another injection of SEQ ID NO. 66 there were >75% fewer instances of acute urinary retention compared to subjects who were administered only a control injection of vehicle alone.
# Patients with BPH [2] = assay: Example One: incidence of acute urinary retention after intraprostatic injection, double-blind, BPH patients; conditions: patients with BPH who received intraprostatic SEQ ID NO: 66 2.5 mg at least once (initial or subsequent treatment); after 2 years; followed 1 to 6 years; p < .05 vs control
# Description: Patients with BPH were given an intraprostatic injection of either a) SEQ ID NO. 66 (Ile-Asp-Gln-Gln-Val-Leu-Ser-Arg-Ile-Lys-Leu-Glu-Ile-Lys-Arg-Cys-Leu) in phosphate buffered saline pH 7.2 (“PBS”) or b) PBS alone, under double-blind conditions by a urologist in an office setting under ultrasound guidance. Patients were followed for 1 to 6 years with regular physical examinations, laboratory tests, and evaluations of symptoms. Both groups of subjects were subsequently given either 1) no further treatment; 2) conventional oral medications such as alpha blockers or 5-alpha reductase inhibitors; 3) an intraprostatic injection of SEQ ID NO. 66 2.5 mg or 4) more than one of the preceding. The overall incidence of acute urinary retention in all patients who received intraprostatic SEQ ID NO. […] 66 under similar conditions.
# Patients with BPH [3] = assay: Example Two: acute urinary retention after vehicle injection followed by oral medications or SEQ ID NO. 66; conditions: PBS vehicle injection followed by intraprostatic injection of SEQ ID NO: 66; followed 1 to 6 years
# Description: Patients with BPH were given an intraprostatic injection of PBS pH 7.2 vehicle alone, under double-blind conditions by a urologist in an office setting under ultrasound guidance. Patients were followed for 1 to 6 years with regular physical examinations, laboratory tests, and evaluations of symptoms, and treatments. […] 66 (Ile-Asp-Gln-Gln-Val-Leu-Ser-Arg-Ile-Lys-Leu-Glu-Ile-Lys-Arg-Cys-Leu).
# Patients with BPH [4] = assay: Example 5: acute urinary retention, follow-up up to 6 years, SEQ ID NO. 66 followed by oral medications or second injection vs vehicle
# Description: Patients with BPH were administered an intraprostatic injection under double-blind conditions by a urologist in an office setting under ultrasound guidance of either a) SEQ ID NO. 66 (Ile-Asp-Gln-Gln-Val-Leu-Ser-Arg-Ile-Lys-Leu-Glu-Ile-Lys-Arg-Cys-Leu), in phosphate buffered saline pH 7.2 (“PBS”), followed by conventional oral BPH medications used to treat BPH including alpha blockers such as tamsulosin, terazosin, doxazosin, or 5-alpha reductase inhibitors such as finasteride, dutasteride, or phosphodiesterase type 5 inhibitors (PDE5 inhibitors) such as tadalafil. Patients were followed for up to 6 years with regular physical examinations, laboratory tests, and evaluations of symptoms; b) SEQ ID NO. 66 in phosphate buffered saline pH 7.2 followed by a second injection of SEQ ID NO. 66 2.5 mg one month to 2 years later; or c) PBS vehicle alone. […] 66 followed by conventional medication or by another injection of SEQ ID NO.
# Patients with BPH [5] = assay: Example 3: acute urinary retention after vehicle or SEQ ID NO. 66 followed by oral BPH medications; conditions: SEQ ID NO: 66 2.5 mg intraprostatic followed by oral medications; followed 1 to 6 years; p < .02
# Description: In this example, patients with BPH were given an intraprostatic injection of PBS pH 7.2 vehicle alone or an injection of SEQ ID NO. 66 (Ile-Asp-Gln-Gln-Val-Leu-Ser-Arg-Ile-Lys-Leu-Glu-Ile-Lys-Arg-Cys-Leu), 2.5 mg in PBS, under double-blind conditions by a urologist in an office setting under ultrasound guidance. Patients were followed for 1 to 6 years with regular physical examinations, laboratory tests, and evaluations of symptoms, and treatments. […] 66 and who subsequently received conventional oral medications used to treat BPH such as the classes of approved medications listed above.
sequence,measurement,setting,value
IDQQVLSRIKLEIKRCL [SEQ ID NO: 66],fewer instances of acute urinary retention compared to vehicle alone,"Patients with BPH [1]; SEQ ID NO. 66 followed by conventional medication or another injection of SEQ ID NO. 66, 2 years",> 75%
same,Incidence of acute urinary retention (<24 months),"Patients with BPH [1]; SEQ ID NO: 66 intraprostatic followed by oral medications or another injection of SEQ ID NO: 66, followed 2 years, p < .03",0.76%*
same,Incidence of acute urinary retention,Patients with BPH [2],1.4%*
same,Incidence of acute urinary retention,Patients with BPH [3],2.1%
same,fewer instances of acute urinary retention compared to vehicle alone,"Patients with BPH [4]; SEQ ID NO. 66 followed by conventional medication or another injection of SEQ ID NO. 66, up to 6 years",> 75%
same,Incidence of acute urinary retention,"Patients with BPH [4]; SEQ ID NO: 66 intraprostatic followed by oral medications or another injection of SEQ ID NO: 66, followed up to 6 years, p < .04",2%*
same,Incidence of acute urinary retention,Patients with BPH [5],0%*
